Measurements from US9233965B2, “3,4-dihydropyrrolo[1,2-A]pyrazine-2,8(1H)-dicarboxamide derivatives, preparation thereof and therapeutic use thereof for diseases involving casein kinase 1 epsilon and/or casein kinase 1 delta” (SANOFI, priority 2010, dated 2016).

Molecular target: casein kinase 1 epsilon (CK1 epsilon) (Homo sapiens (Human), UniProt P49674)
Assay: Test A: inhibitory activity on CK1 epsilon, casein phosphorylation assay on ATP-33P filter plate
Type: biochemical
Conditions: IC50 values or IC50 ranges (result of several experiments), ATP 10 μM final
Method: The capacity of the compounds of the invention to inhibit the phosphorylation of casein by casein kinase 1 epsilon and/or delta may be evaluated according to the procedures described in document US 2005/0 131 012.
Test A: Inhibitory Activity on CK1 Epsilon Measured by Assay on an ATP-^33P Filter Plate
The effect of the compounds on inhibition of the phosphorylation of casein by the enzyme casein kinase 1 epsilon (CK1 epsilon) is measured, using a casein assay via filtration of ATP-^33P in vitro.
Casein kinase 1 epsilon (0.58 mg/ml) is obtained via fermentation and purification processes performed according to methods that are well known to those skilled in the art, or may also be obtained from Invitrogen Corporation™ (human CK1 epsilon).
The compounds are tested at five different concentrations so as to generate IC50 values, i.e. the concentration at which a compound is capable of inhibiting the enzymatic activity by 50%, or alternatively the percentage of inhibition at a concentration of 10 micromolar.
“U”-bottomed Falcon plates are prepared by placing 5 μL of solutions of the compounds according to the invention at concentrations of 10, 1, 0.1, 0.01 or 0.001 μM in different wells. The solutions of the compounds according to the invention at these various concentrations are prepared by diluting in a test buffer (Tris 50 mM pH 7.5, MgCl2 […], DTT 2 mM and EGTA 1 mM) a stock solution in DMSO at a concentration of 10 mM. Next, 5 μL of dephosphorylated casein are added to a final concentration of 0.2 μg/μL, 20 μL of CK1 epsilon to a final concentration of 3 ng/μL, and 20 μL of ATP-^33P to a final concentration of 0.02 μCi/μL mixed with cold ATP (10 μM final—approximately 2×10^6 CPM per well). The final total test volume per well is equal to 50 μL.
The “U”-bottomed Falcon® test plate mentioned above is vortexed, and then incubated at room temperature for 2 hours. After 2 hours the reaction is stopped by adding an ice-cold solution of 65 μL of cold ATP (2 mM) prepared in test buffer.
100 μL of the reaction mixture are then transferred from the “U”-bottomed Falcon® plate into Millipore® MAPH filter plates, preimpregnated with 25 μL of ice-cold 100% TCA.
The Millipore MAPH filter plates are agitated gently and are left to stand at room temperature for at least 30 minutes to precipitate the proteins.
After 30 minutes, the filter plates are sequentially washed and filtered with 2×150 μL of 20% TCA, 2×150 μL of 10% TCA and 2×150 μL of 5% TCA (6 washes in total per plate/900 μL per well).
The plates are left to dry overnight at room temperature. Next, 40 μL of Microscint-20 Packard® scintillation liquid are added per well and the plates are closed in a leaktight manner. The radiation emitted by each well is then measured for 2 minutes in a TopCount NXT Packard® scintillation counter, in which the values of CPM/well are measured.
The percentage inhibition of the capacity of the enzyme to phosphorylate the substrate (casein) is determined for each concentration of test compound. These inhibition data expressed as percentages are used to calculate the IC50 value for each compound compared with the controls.
The kinetic studies determined the KM value for ATP as being 21 μM in this test system.
Table 2 below gives the IC50 values or the IC50 inhibition ranges (result of several experiments) for the phosphorylation of Casein Kinase 1 Epsilon for a number of compounds according to the invention.

Chain of casein kinase 1 epsilon (CK1 epsilon) (P49674 whole entry): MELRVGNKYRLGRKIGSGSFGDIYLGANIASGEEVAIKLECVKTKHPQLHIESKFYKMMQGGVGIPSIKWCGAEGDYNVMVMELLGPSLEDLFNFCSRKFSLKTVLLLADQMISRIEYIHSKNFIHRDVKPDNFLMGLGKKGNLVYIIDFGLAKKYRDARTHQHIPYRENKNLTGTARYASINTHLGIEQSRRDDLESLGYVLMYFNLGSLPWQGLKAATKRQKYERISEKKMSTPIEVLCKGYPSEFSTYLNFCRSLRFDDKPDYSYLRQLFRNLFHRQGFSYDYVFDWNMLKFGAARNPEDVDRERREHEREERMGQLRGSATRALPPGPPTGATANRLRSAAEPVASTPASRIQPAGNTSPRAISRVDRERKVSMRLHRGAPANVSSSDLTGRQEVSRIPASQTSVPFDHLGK

IC50	SMILES
24 nM	CC(C)(C)NC(=O)N1CCn2c(c(C(N)=O)c(-c3ccc(OCC#N)cc3)c2C2CC2)C1 [Compound 43, N^2-tert-butyl-7-[4-(cyanomethoxy)phenyl]-6-cyclo-propyl-3,4-dihydropyrrolo[1,2-a]pyrazine-2,8(1H)-dicarboxamide]
331 nM	CC(C)(C)NC(=O)N1CCn2c(c(C(N)=O)c(-c3ccc(N4CCOCC4)cc3)c2C2CC2)C1 [Compound 30, N^2-tert-butyl-6-cyclo-propyl-7-[4-(morpholin-4-yl)phenyl]-3,4-dihydropyrrolo[1,2-a]pyrazine-2,8(1H)-dicarboxamide]
847 nM	CC(C)(C)NC(=O)N1CCn2c(c(C(N)=O)c(-c3cccc(OCC4CC4)c3)c2C2CC2)C1 [Compound 33, N^2-tert-butyl-6-cyclo-propyl-7-[3-(cyclo-propylmethoxy)phenyl]-3,4-dihydropyrrolo[1,2-a]pyrazine-2,8(1H)-dicarboxamide]
5 to 11 nM	CC(C)(C)NC(=O)N1CCn2c(c(C(N)=O)c(-c3cccc(F)c3)c2C2CC2)C1 [Compound 46, N^2-tert-butyl-6-cyclo-propyl-7-(3-fluorophenyl)-3,4-dihydropyrrolo[1,2-a]pyrazine-2,8(1H)-dicarboxamide]
2 nM	NC(=O)c1c(-c2cccc(F)c2)c(Cl)n2c1CN(C(=O)NC1CCC(O)(C(F)(F)F)CC1)CC2 (stereo not drawn) [Compound 85, trans-6-chloro-7-(3-fluorophenyl)-N^2-(4-hydroxy-4-trifluoromethyl-cyclo-hexyl)-3,4-dihydropyrrolo[1,2-a]pyrazine-2,8(1H)-dicarboxamide]
12 nM	Cc1ccc(-c2c(C(N)=O)c3n(c2C2CC2)CCN(C(=O)NC(C)(C)C)C3)cc1 [Compound 12, N^2-tert-butyl-6-cyclo-propyl-7-(4-methylphenyl)-3,4-dihydropyrrolo[1,2-a]pyrazine-2,8(1H)-dicarboxamide]
7 to 14 nM	NC(=O)c1c(-c2cccc(F)c2)c(Cl)n2c1CN(C(=O)NC1CCS(=O)(=O)CC1)CC2 [Compound 103, 6-chloro-N^2-(1,1-dioxydotetrahydro-2H-thiopyran-4-yl)-7-(3-fluorophenyl)-3,4-dihydropyrrolo[1,2-a]pyrazine-2,8(1H)-dicarboxamide]
42 nM	CC(C)(C)NC(=O)N1CCn2c(c(C(N)=O)c(-c3ccc(OCc4ccc(F)cc4)cc3)c2C2CC2)C1 [Compound 41, N^2-tert-butyl-6-cyclo-propyl-7-{4-[(4-fluorobenzyl)oxy]phenyl}-3,4-dihydropyrrolo[1,2-a]pyrazine-2,8(1H)-dicarboxamide]
16 nM	CC(C)(C)NC(=O)N1CCn2c(c(C(N)=O)c(-c3ccc(OCc4ccc(F)cc4)c(Cl)c3)c2C2CC2)C1 [Compound 42, N^2-tert-butyl-7-{3-chloro-4-[(4-fluorobenzyl)oxy]phenyl}-6-cyclo-propyl-3,4-dihydropyrrolo[1,2-a]pyrazine-2,8(1H)-dicarboxamide]
25 nM	CC(C)(C)NC(=O)N1CCn2c(c(C(N)=O)c(-c3cccc(OC(F)(F)F)c3)c2C2CC2)C1 [Compound 35, N^2-tert-butyl-6-cyclo-propyl-7-[3-(trifluoromethoxy)phenyl]-3,4-dihydropyrrolo[1,2-a]pyrazine-2,8(1H)-dicarboxamide]
< 1 nM	CON=C1CCC(NC(=O)N2CCn3c(Cl)c(-c4cccc(F)c4)c(C(N)=O)c3C2)CC1 (stereo not drawn) [Compound 86, trans-6-chloro-7-(3-fluorophenyl)-N^2-(4-methoxyimino-cyclohexyl)-3,4-dihydropyrrolo[1,2-a]pyrazine-2,8(1H)-dicarboxamide]
1 to 2 nM	CSc1ccc(-c2c(C(N)=O)c3n(c2C2CC2)CCN(C(=O)NC(C)(C)C)C3)cc1 [Compound 48, N^2-tert-butyl-6-cyclo-propyl-7-[4-(methylsulfanyl)phenyl]-3,4-dihydropyrrolo[1,2-a]pyrazine-2,8(1H)-dicarboxamide]
8 to 13 nM	CC(C)CNC(=O)N1CCn2c(Cl)c(-c3ccccc3)c(C(N)=O)c2C1 [Compound 59, 6-chloro-N^2-iso-butyl-7-phenyl-3,4-dihydropyrrolo[1,2-a]pyrazine-2,8(1H)-dicarboxamide]
1 nM	CC1(O)CCC(NC(=O)N2CCn3c(Cl)c(-c4cccc(F)c4)c(C(N)=O)c3C2)CC1 (stereo not drawn) [Compound 84, trans-6-chloro-7-(3-fluorophenyl)-N^2-(4-hydroxy-4-methyl-cyclo-hexyl)-3,4-dihydropyrrolo[1,2-a]pyrazine-2,8(1H)-dicarboxamide]
963 nM	CC(C)(C)NC(=O)N1CCn2c(c(C(N)=O)c(-c3ccc(C(=O)NC4CC4)cc3)c2C2CC2)C1 [Compound 18, N^2-tert-butyl-6-cyclo-propyl-7-[4-(cyclo-propylcarbamoyl)phenyl]-3,4-dihydropyrrolo[1,2-a]pyrazine-2,8(1H)-dicarboxamide]
49 nM	CC(C)CNC(=O)N1CCn2c(c(C(N)=O)c(-c3ccccc3)c2C2CC2)C1 [Compound 9, 6-cyclo-propyl-7-phenyl-N^2-(iso-butyl)-3,4-dihydropyrrolo[1,2-a]pyrazine-2,8(1H)-dicarboxamide]
33 nM	CC(C)(C)NC(=O)N1CCn2c(c(C(N)=O)c(-c3ccc(OC(F)(F)F)cc3)c2C2CC2)C1 [Compound 44, N^2-tert-butyl-6-cyclo-propyl-7-[4-(trifluoromethoxy)phenyl]-3,4-dihydropyrrolo[1,2-a]pyrazine-2,8(1H)-dicarboxamide]
620 nM	CON(C)C(=O)c1ccc(-c2c(C(N)=O)c3n(c2C2CC2)CCN(C(=O)NC(C)(C)C)C3)cc1 [Compound 20, N^2-tert-butyl-6-cyclo-propyl-7-{4-[methoxy(methyl)carbamoyl]phenyl}-3,4-dihydropyrrolo[1,2-a]pyrazine-2,8(1H)-dicarboxamide]
450 to 1000 nM	CC(C)c1ccc(-c2c(C(N)=O)c3n(c2C2CC2)CCN(C(=O)NC(C)(C)C)C3)cc1 [Compound 13, N^2-tert-butyl-6-cyclo-propyl-7-[4-(iso-propyl)phenyl]-3,4-dihydropyrrolo[1,2-a]pyrazine-2,8(1H)-dicarboxamide]
3 to 5 nM	NC(=O)c1c(-c2ccccc2)c(Cl)n2c1CN(C(=O)NC1CC3CCC1C3)CC2 (stereo not shown) [Compound 88, N^2-(bicyclo[2.2.1]hept-2-yl)-6-chloro-7-phenyl-3,4-dihydropyrrolo[1,2-a]pyrazine-2,8(1H)-dicarboxamide]
2 to 4 nM	CC(C)(C)NC(=O)N1CCn2c(c(C(N)=O)c(-c3ccc(-c4ccccc4)cc3)c2C2CC2)C1 [Compound 15, 7-(biphenyl-4-yl)-N^2-tert-butyl-6-cyclo-propyl-3,4-dihydropyrrolo[1,2-a]pyrazine-2,8(1H)-dicarboxamide]
521 nM	CN(C)S(=O)(=O)Nc1cccc(-c2c(C(N)=O)c3n(c2C2CC2)CCN(C(=O)NC(C)(C)C)C3)c1 [Compound 26, N^2-tert-butyl-6-cyclo-propyl-7-{3-[(dimethylsulfamoyl)amino]phenyl}-3,4-dihydropyrrolo[1,2-a]pyrazine-2,8(1H)-dicarboxamide]
> 1 nM	C[C@@H]1CC(NC(=O)N2CCn3c(Cl)c(-c4cccc(F)c4)c(C(N)=O)c3C2)C[C@H](C)O1 (stereo partly drawn) [Compound 100, cis-6-chloro-N^2-(2,6-dimethyl-tetrahydro-2H-pyran-4-yl)-7-(3-fluorophenyl)-3,4-dihydropyrrolo[1,2-a]pyrazine-2,8(1H)-dicarboxamide]
2 to 16 nM	NC(=O)c1c(-c2cccc(F)c2)c(Cl)n2c1CN(C(=O)NCCCC(F)(F)F)CC2 [Compound 81, 6-chloro-7-(3-fluorophenyl)-N^2-(4,4,4-trifluorobutyl)-3,4-dihydropyrrolo[1,2-a]pyrazine-2,8(1H)-dicarboxamide]
5 to 29 nM	CC(C)(C)NC(=O)N1CCn2c(c(C(N)=O)c(-c3ccc(-n4cccn4)cc3)c2C2CC2)C1 [Compound 31, N^2-tert-butyl-6-cyclo-propyl-7-[4-(1H-pyrazol-1-yl)phenyl]-3,4-dihydropyrrolo[1,2-a]pyrazine-2,8(1H)-dicarboxamide]
